In patent publication US20030203975A1, “Anti-cancer agents” (priority 1998, published 2003):

What was measured:
Topoisomerase IIα [1] = biological target: T1, Topoisomerase IIα (Homo sapiens, UniProt P11388); assay: Topo II cleavage assay; format: biochemical; set-up: key: ‘—’ = Not active; conditions: unit not given; compound at 1, 10, 25 and 50 μM in protocol
Procedure: (§1) Topo II 5 μl (1-1 μg); […] Results are included in Table 3 below.

Topoisomerase IIβ [2] = biological target: T2, Topoisomerase IIβ (Homo sapiens, UniProt Q02880); assay: Topo II decatenation assay; format: biochemical; conditions: unit not given; kDNA substrate; compound at 1, 10, 25 and 50 μM in protocol
T2 sequence (Q02880 whole entry): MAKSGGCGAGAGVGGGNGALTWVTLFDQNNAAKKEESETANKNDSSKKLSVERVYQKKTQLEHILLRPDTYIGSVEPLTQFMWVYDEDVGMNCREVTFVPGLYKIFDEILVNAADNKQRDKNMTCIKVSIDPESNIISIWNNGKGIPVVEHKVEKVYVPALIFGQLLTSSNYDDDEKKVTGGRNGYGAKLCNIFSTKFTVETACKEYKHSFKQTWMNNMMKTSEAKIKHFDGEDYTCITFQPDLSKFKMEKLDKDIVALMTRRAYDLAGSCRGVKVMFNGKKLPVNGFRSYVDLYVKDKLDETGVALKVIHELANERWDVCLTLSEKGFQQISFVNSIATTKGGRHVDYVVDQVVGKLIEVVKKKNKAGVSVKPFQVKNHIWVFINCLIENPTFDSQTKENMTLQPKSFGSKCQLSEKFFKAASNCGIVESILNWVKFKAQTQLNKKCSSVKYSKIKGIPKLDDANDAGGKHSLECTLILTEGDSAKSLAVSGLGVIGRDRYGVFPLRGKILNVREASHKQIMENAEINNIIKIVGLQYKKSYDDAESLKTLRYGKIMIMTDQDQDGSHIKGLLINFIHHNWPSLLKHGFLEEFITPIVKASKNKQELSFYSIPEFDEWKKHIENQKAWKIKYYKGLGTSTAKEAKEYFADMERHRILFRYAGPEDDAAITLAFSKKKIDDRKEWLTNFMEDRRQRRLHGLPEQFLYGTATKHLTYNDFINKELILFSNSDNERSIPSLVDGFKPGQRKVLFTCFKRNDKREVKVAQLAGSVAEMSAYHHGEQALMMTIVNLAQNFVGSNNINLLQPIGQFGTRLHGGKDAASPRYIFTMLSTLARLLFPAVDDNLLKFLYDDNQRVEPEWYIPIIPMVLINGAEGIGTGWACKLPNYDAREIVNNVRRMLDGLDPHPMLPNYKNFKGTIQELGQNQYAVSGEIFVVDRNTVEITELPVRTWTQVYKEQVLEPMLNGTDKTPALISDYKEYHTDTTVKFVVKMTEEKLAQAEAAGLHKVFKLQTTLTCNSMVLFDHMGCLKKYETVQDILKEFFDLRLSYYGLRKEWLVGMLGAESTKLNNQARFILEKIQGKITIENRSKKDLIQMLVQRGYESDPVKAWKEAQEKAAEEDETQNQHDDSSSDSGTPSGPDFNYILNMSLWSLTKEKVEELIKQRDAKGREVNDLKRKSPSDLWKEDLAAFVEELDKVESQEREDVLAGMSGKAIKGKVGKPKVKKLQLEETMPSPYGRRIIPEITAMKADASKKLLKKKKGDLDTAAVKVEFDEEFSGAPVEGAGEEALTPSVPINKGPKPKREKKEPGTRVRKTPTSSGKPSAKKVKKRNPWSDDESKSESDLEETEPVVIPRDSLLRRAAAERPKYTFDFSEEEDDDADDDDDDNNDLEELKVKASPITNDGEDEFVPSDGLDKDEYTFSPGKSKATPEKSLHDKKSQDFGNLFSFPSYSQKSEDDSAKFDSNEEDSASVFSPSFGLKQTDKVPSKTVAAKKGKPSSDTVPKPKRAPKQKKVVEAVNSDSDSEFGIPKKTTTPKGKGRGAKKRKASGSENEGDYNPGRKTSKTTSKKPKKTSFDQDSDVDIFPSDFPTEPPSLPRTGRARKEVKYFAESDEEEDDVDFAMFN
Procedure: (§2) Topisomerase Decatenation Assay.
(§3) This method uses catenated DNA substrate prepared from the kinetoplast of the insect trypanosome Crithidia fasciculata. Upon incubation with topo II, which engages DNA in a double stranded breakage-reunion cycle, DNA minicircles are released. Addition of topo-inhibiting drugs may prevent decatenation.
(§4) Topo II Decatenation Assay Protocol
(§5) This assay is the same as the Topo II Relaxation assay except that the pBR 322 Plasmid DNA is replaced with kDNA.
(§6) Results are included in Table 3 below

Topoisomerase I [3] = biological target: T3, Topoisomerase I (Homo sapiens, UniProt P11387); assay: Topo I cleavage assay; format: biochemical; conditions: for TopI Cleave: unit not given, compound at 1, 10, 25 and 50 μM in protocol
T3 sequence (P11387 1-765): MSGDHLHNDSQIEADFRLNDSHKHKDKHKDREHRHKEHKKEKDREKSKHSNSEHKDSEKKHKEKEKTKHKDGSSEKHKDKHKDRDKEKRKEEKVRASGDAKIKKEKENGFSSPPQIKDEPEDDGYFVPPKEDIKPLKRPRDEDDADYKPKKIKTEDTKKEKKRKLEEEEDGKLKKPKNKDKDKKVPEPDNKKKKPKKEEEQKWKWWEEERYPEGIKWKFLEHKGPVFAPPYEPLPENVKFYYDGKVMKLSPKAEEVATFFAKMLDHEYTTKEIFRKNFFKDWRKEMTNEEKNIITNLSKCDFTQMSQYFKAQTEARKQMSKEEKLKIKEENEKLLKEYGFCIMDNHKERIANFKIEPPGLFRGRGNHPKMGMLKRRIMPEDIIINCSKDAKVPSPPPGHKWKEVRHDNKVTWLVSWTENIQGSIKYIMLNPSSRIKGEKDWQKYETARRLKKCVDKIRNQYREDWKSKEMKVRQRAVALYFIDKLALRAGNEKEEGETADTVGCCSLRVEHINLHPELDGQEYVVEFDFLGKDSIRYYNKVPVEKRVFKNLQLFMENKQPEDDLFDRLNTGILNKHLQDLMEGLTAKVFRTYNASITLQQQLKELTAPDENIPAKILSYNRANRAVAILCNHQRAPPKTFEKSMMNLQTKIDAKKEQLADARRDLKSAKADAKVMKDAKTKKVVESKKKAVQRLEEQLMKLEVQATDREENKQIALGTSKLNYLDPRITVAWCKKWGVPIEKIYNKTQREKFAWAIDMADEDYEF

Topoisomerase I [4] = biological target: T3, Topoisomerase I; assay: Topo I relaxation assay; format: biochemical; conditions: unit not given; compound at 1, 10, 25 and 50 μM in protocol
Description: Topo I Relaxation Assay Protocol.

Topoisomerase IIα [5] = biological target: T1, Topoisomerase IIα; assay: Topo II decatenation assay; format: biochemical; set-up: key: ‘—’ = Not active; conditions: unit not given; kDNA substrate; compound at 1, 10, 25 and 50 μM in protocol
Procedure: as §2, §3, §4, §5, §6

Topoisomerase IIβ [6] = biological target: T2, Topoisomerase IIβ; assay: Topo II cleavage assay; format: biochemical; conditions: unit not given; compound at 1, 10, 25 and 50 μM in protocol
Procedure: as §1

[7] = tested on: DNA: Calf thymus sodium salt; assay: DNA binding assay, ethidium bromide displacement; set-up: key: NB = Not binding; conditions: concentration required to displace 50% of the ethidium bromide; 20 μM DNA, 2 μM dye
Procedure: (§7) The propensity of selected compounds to bind to DNA in the absence of topos was measured in order to identify compounds that would bind weakly, or not at all. […] A […] was used determine binding constants of the compound to DNA by displacement of either ethidium bromide (an intercalator) or Hoechst dye 33258 (a groove binder) which form a DNA-bound fluorescent complex measured by fluorescence spectroscopy.
(§8) DNA Binding Assay Protocol
(§9) In order to detect the strength and mode of anthraquinone compound binding to DNA the displacement of known DNA binders was detected by measuring the fluorescence of a DNA/fluorescent compound complex. The addition of known concentrations of ethidium bromide, an interchelator, and Hoescht Dye, a groove binder, cause a fluorescent DNA/binder complex that can be detected and the fluorescence quantified. The addition of anthraquinone compounds displaces the interchelators or groove binders, depending on the compound mode of DNA binding, and therefore reduces the fluorescence accordingly. The preferred binding action of compounds can be quantified by determining the reduction in fluorescence resulting from a given concentration of compound. The quantification of a compounds ability to bind to DNA is expressed, as the concentration required to displace 50% of the ethidium bromide or Hoescht Dye, thus reducing the fluorescence by 50%. Therefore, the values produced are QE50 for ethidium, bromide, or QH50 for Hoescht Dye.
(§10) Compound: 300, 60, 10 and 10/6gM (1.66 μM) solution concentrations were prepared for use in the assay to produce a range of compound. Concentrations. 100, 200 and 300 μl of each dilution were used in the assay reaction. This provides a range of concentrations: −30, 20, 10, 6, 4, 2, 1, 0.67, 0.33, 0.17, 0.11, 0.06, 0.00 μM in the assay environment. Intermediate concentrations can be utilised to enhance the accuracy of the displacement concentration determination.
(§11) Buffer: 100 mM Tris, NaCI 500 mM. DNA: Calf thymus sodium salt. Stock solution of 200 μM was prepared in 10× assay buffer. Dilution of DNA therefore provided the correct concentration of assay buffer in the assay cell.300 μg DNA was used in 3 ml reaction mixture therefore 20 μM DNA concentration. Hoescht Dye 2 μM final concentration, therefore 100 μl of a 60 μM stock solution was added to a 3 ml assay. Ethidium Bromide 2 μM final concentration therefore 100 μl of a 60 μM stock solution was added to a 3 ml assay. Distilled H2O Water was added to produce 3 ml reaction volume. Order of addition: 1. DNA, 2. Water, 3. Drug, 4. Dye
(§12) The assay was completed with both Hoescht Dye and Ethidium. Bromide for each compound. The ethidium bromide is a DNA inter-chelator, Hoescht Dye is a minor groove binder. 100, 200 and […] of the lowest compound dilution was assayed. This procedure was repeated with all further dilution's. This provided a curve of fluorescence intensity decrease with increasing compound concentration. QE50 and QH50 values were determined by extrapolating the concentration of compound at the point where the fluorescence intensity was reduced by 50%. Controls involving compound only and ethidium. bromide or Hoechst Dye without compound were carried out for each experiment. Two readings for each concentration of compound were performed per experiment, each experiment was repeated at least three times. Fluorometer: Perkin Elmer Luminescence Spectrometer LS 50B.

[8] = tested on: DNA: Calf thymus sodium salt; assay: DNA binding assay, Hoechst dye displacement; set-up: key: NB = Not binding; conditions: concentration required to displace 50% of the Hoescht Dye; 20 μM DNA, 2 μM dye
Procedure: as §7, §8, §9, §10, §11, §12

T1 sequence (P11388 whole entry): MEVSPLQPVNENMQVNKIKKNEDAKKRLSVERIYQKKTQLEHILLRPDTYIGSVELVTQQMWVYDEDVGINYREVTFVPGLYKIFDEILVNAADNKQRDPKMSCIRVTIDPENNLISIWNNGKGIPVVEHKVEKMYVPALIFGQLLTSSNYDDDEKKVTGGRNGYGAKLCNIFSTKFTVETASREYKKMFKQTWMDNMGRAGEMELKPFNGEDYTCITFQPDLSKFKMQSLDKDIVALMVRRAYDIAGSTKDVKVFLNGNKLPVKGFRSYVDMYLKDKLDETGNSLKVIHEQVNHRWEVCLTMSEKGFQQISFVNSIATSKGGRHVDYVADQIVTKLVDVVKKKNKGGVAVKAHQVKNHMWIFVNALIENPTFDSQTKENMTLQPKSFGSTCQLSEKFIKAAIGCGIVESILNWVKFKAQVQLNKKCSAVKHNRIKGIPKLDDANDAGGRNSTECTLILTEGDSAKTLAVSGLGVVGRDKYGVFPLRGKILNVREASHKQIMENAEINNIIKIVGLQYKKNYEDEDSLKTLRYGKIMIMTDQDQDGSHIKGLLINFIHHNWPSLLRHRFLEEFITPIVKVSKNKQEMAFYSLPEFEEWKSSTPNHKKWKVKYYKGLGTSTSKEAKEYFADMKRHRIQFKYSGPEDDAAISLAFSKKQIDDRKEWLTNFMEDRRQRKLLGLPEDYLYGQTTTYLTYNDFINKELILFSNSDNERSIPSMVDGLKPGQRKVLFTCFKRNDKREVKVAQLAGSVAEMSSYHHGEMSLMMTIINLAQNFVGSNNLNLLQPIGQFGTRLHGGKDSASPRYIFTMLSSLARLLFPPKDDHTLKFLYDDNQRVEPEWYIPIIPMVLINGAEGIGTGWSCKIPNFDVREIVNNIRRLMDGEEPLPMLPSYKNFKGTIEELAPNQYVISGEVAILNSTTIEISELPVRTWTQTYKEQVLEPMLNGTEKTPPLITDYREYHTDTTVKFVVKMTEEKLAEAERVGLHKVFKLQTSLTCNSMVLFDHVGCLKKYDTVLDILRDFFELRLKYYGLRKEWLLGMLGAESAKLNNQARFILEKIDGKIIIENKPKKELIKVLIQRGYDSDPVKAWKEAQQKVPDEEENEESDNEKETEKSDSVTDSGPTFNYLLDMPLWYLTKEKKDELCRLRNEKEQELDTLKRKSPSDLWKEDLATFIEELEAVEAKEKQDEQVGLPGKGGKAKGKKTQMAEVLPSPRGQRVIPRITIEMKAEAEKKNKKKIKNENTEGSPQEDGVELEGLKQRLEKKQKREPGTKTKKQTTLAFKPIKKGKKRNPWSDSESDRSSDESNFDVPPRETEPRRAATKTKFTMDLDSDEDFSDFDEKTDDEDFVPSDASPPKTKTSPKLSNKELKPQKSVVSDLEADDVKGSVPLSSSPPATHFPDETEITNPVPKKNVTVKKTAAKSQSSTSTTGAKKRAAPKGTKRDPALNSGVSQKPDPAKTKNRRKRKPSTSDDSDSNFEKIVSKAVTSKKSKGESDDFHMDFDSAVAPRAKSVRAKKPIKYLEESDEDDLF

SMILES	TopIIα Cleave. (Topoisomerase IIα [1])	TopIIβ Decat. (Topoisomerase IIβ [2])	nicked DNA (Topoisomerase I [3]; at 100 μM)	TopI Cleave (Topoisomerase I [3])	TopI Relax. (Topoisomerase I [4])	TopIIα Decat. (Topoisomerase IIα [5])	TopIIβ Cleave. (Topoisomerase IIβ [6])	QE50 Intercalating [7]	QH50 Minor groove binding [8]
C[C@H](N)C(=O)OCCCCNc1cccc2c1C(=O)c1ccccc1C2=O.O=C(O)C(F)(F)F [Example 43, 1-[4-(L-alanyloxy)butylamino]anthracene-9,10-dione trifluoroacetate]	—	25	20%	100	25	—	25	NB	NB
C[C@@H](N)C(=O)OCCCCNc1cccc2c1C(=O)c1ccccc1C2=O.O=C(O)C(F)(F)F [Example 45, 1-[4-(D-alanyloxy)butylamino]anthracene-9,10-dione trifluoroacetate]	—	20		300	25	—	20	NB	NB
